US7157250B2, “Glutamic acid receptor and utilization thereof” (Ajinomoto Co., Inc., priority 2004, dated 2007)

Experiments:
[1] = tested on: abdominal cavity branch of vagus nerve; test: Afferent activity of the abdominal cavity branch of vagus nerve after intraduodenal administration; assay type: in vivo, rat; details: 150 mM administered in the duodenum; urethane-anesthetized Wistar rats starved for 18 hours
Procedure: After starved for 18 hours, rats (Wistar strain, male, 8 to 10 week age: Japan Charles River) were laparotomized under anesthesis with urethane (1 g/kg, i.p.) and about 5 mm of the abdominal cavity branch of vagus nerve was peeled off under stereoscopic microscope. After the cutting of vagus nerve fasciculus, the vagus nerve fasciculus was placed on a small operation stage (8×6 mm) and fat and connective tissue surrounding the vagus nerve fasciculus were carefully peeled off. The terminal fiber on the organ side was placed on a platinum-made bipolar electrode and insulated from the surrounding tissue with liquid paraffin/vaseline (1:1) mixed solution. […]
The neural activity potential was amplified 10,000 folds by a micro potential amplifier (DAM-80 manufactured by WPI) and subjected to A/D conversion (Powerlab 4sp, manufactured by ADI Instruments) after noise was decreased by a Bessel filter (4-pole, […]). […] Simultaneously, while monitoring the amplified signals by an oscilloscope, a noise component is separated from a neural signal component by a window discriminator (DSE-435, manufactured by DiaMedical Corporation), integrated for 5 seconds by a Spike Counter (DSE-335P, manufactured by Nihon Kohden Corporation) and recorded by a chart recorder (WT-465G, manufactured by Nihon Kohden Corporation). […]

mGluR4 variant = target: T1, mGluR4 variant (Rattus norvegicus, UniProt P31423); test: Measurement of function of mGluR4 variant gene by cAMP measurement in variant expressing CHO-K1 cells; assay type: cell-based; details: 1 mM; for amount of cAMP: in presence of IBMX 100 μM and forskolin 10 μM, n=3
T1 construct: A full-length cDNA of a novel mGluR4 variant was amplified again by a RT-PCR method; V5-His (only in the cloning vector's name); expressed in transfected cells
T1 sequence (P31423 with tags, fused parts or gaps): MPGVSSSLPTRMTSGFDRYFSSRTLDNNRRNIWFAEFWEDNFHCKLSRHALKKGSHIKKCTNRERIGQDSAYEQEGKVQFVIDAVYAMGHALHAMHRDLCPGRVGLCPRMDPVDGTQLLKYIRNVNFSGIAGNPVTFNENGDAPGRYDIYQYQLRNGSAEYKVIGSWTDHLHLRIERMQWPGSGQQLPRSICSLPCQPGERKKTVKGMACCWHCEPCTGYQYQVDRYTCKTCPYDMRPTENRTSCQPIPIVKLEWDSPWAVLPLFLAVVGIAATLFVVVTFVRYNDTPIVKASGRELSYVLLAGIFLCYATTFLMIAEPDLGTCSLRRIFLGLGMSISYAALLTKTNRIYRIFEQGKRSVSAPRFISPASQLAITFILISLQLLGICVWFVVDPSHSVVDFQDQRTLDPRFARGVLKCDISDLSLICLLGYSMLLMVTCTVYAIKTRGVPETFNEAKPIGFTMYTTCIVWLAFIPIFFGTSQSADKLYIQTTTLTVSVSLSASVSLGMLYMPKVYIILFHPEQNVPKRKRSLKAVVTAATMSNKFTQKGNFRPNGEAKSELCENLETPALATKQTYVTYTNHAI
Procedure: The prepared vector (pcDNA3.1E) was introduced in CHO-K1 cell (Dainippon Pharmaceutical Co., Ltd.) by using polyFect reagent (Qiagen). After 48 hours, neomycin (600 μg/ml) was added to a culture medium (Modified Eagle Medium (αMEM) containing 10% fetal bovine serum, 100 U/ml penicillin; Nacalai Tesque) and cultivation was continued for 2 to 3 weeks to perform screening of gene-introduced cells.
The variant expressing cells obtained as described above were dispensed to 2.5×10^5 cells/well on a plate (24-well) and cultivated for 20 hours and then used for the measurement of the function of cAMP. Each plate was washed well with Dulbeco's phosphate buffer and incubated for 20 minutes. Thereafter, stimulation was performed with each drug for 10 minutes at 37° C. After the stimulation, the cells were at once treated with ice-cooled 2.5% perchloric acid (PCA) for 30 minutes, neutralized with KOH, and centrifuged to obtain a supernatant (12,000 rpm×10 min, 4° C.). The cAMP content of the supernatant was determined according to a conventional enzyme immunoassay (ELISA) by using a cAMP assay kit (Amersham).

Compound: N[C@@H](CCC(=O)[O-])C(=O)[O-].[Na+].[Na+] [MSG, sodium L-glutamate]
- afferent activity of the abdominal cavity branch of vagus nerve [1]: increased

Compound: N[C@@H](CCC(=O)O)C(=O)O [glutamic acid]
- amount of cAMP (mGluR4 variant): 1,235 fmole
- decrease of the amount of cAMP accumulated in the mGluR4 variant expressing cell (mGluR4 variant; versus sodium chloride (1 mM) added group, IBMX 100 μM and forskolin 10 μM present): about 19%

Compound: [Cl-].[Na+] [sodium chloride]
- amount of cAMP (mGluR4 variant): 1,519 fmole
